Laboratory results reported in patent US20250325499A1, “IMMUNO-ABLATION TREATMENT FOR SOLID TUMORS” (Northwestern University, priority 2022, published 2025).

Legend:
[1] = tested on: N1S1 cells; assay: Cellular uptake of curcumin (confocal images, flow cytometry)
Procedure: Briefly, the N1S1 cells (1×10^5/mL) were cultured in a confocal dish (MatTek, 35 mm dish with 14 mm glass bottom). The cellular nucleus was stained with DAPI. Cell membranes were stained with Dil red (D282) following the protocol from ThermoFisher. […] The cells were then fixed by 4% paraformaldehyde and visualized with a confocal microscope (Nikon AIRS).
(§4) N1S1 cells were seeded onto the six-well plate (2×10^5/well). […] After washing the cells with PBS, they were fixed with 4% formalin at room temperature for 15 minutes. The results were examined by flow cytometry.

[2] = tested on: N1S1 cells; assay: Cell viability assay (CCK-8); format: cell-based
Procedure: N1S1 cells (1×10^4/mL) were seeded onto 96-well plates. […] Then the cells were washed with PBS and replenished with fresh media. After 24 h or 48 hr incubation, the cells viability was measured with CCK-8 assay.

[3] = tested on: GPX-4
Procedure: (§1) N1S1 cells were seeded in the 8 cm culture dishes and cultured at 5% CO2, 37° C. overnight. The cells were treated with various groups for […]: ethanol (25, 20, 15, 10, and 5%) for 4, 12, and 24 h, and 15% ethanol+Cur1, 10% ethanol+Cur1, 15% ethanol+Cur2, 10% ethanol+Cur2, 15% ethanol+Cur3, and 10% ethanol+Cur3 for 24 h. […] No treatment of N1S1 was used as control. The cell lysates were collected and analyzed by Western blotting according to the manufacturer's instructions. Antibodies were used listed as below: GPX4 Rabbit anti-Human, Mouse, Rat, Polyclonal, Invitrogen™, catalog number: PIPA579321, dilution 0.1-0.5 μg/mL; p-STAT3 Rabbit mAb, cell signaling, catalog number: 9145, dilution 1:2000; p-p65 Rabbit mAb, cell signaling, catalog number: 3033, dilution 1:1000; PD-L1 Polyclonal Antibody, Invitrogen™, catalog number: PA5-20343, dilution 0.5-2 μg/mL; β-Actin (8H10D10) Mouse mAb (HRP Conjugate), cell signaling, catalog number: 12262, dilution 1:1000.
Western blot assay was then used to identify specific molecules associated with cancer cell response to the ethanol treatments. […] However, relatively low ethanol concentrations (10, 5, and 1%) increased the GPX-4 level at 12 h post-treatment compared to 4 h post-treatment, indicating a defensive response to the oxidative stress caused by ethanol. […] This is in agreement with the results of the cell viability and Annexin-V/PI assays (FIG. 1).

[4] = tested on: p-STAT3; assay: Western blot of p-STAT3 in N1S1 hepatoma cells; format: cell-based; conditions: ethanol 10, 5 and 1%
Procedure: as §1
(§2) Western blot assay was then used to identify specific molecules associated with cancer cell response to the ethanol treatments. […] However, relatively low ethanol concentrations (10, 5, and 1%) increased the GPX-4 level at 12 h post-treatment compared to 4 h post-treatment, indicating a defensive response to the oxidative stress caused by ethanol. […]

[5] = tested on: p-p65; assay: Western blot of p-p65 in N1S1 hepatoma cells; format: cell-based; conditions: ethanol 10, 5 and 1%
Procedure: as §1, §2

[6] = tested on: PD-L1; assay: Western blot / flow cytometry of PD-L1 in N1S1 hepatoma cells; format: cell-based; conditions: ethanol 10, 5 and 1%
Procedure: as §1, §2

[7] = tested on: N1S1 HCC tumors in rat liver; assay: In vivo abscopal effect of ethanol-curcumin treated N1S1 cells, tumor volume by MRI; conditions: left lobe inoculated with treated N1S1 cells (10% ethanol or 10% ethanol plus Cur2 0.5% w/v) mixed with non-treated cells, MRI 8-day post-inoculation
Source text: (§3) The rats in the control group were only inoculated in the right lobe of the liver with 5 million non-treated N1S1 cells. The right-side tumors (arrow in FIG. 5A) were established for testing abscopal effect. These tumors were collected for an immune status assay. The tumor in the control group was used as the baseline.

[8] = tested on: N1S1 HCC tumors in rat liver; assay: In vivo immune status of right-side tumors by flow cytometry; conditions: 8 days post treatment
Source text: To test in vivo tumor neutrophil cell populations, rats were sacrificed, and tumors were harvested at 8 days post treatment and examined by flow cytometry after immunofluorescence staining with anti-CD45-BV605, anti-Granulocytes-PE, and anti-CD11b/c-PerCP/eF710. To determine the intra-tumoral infiltration of CD8+ (CD3+CD4-CD8+), lymphocytes were stained with anti-CD45-BV605, anti-CD3-FITC, anti-CD11b/c-PerCP/eF710, anti-CD4-APC/Cy7, anti-CD8-V450, and anti-IFN-gamma-AF647. To determine the intra-tumoral infiltration of CD4+ (Treg), lymphocytes were stained with anti-CD45-BV605, anti-CD3-FITC, anti-CD11b/c-PerCP/eF710, anti-CD4-APC/Cy7, anti-CD8-V450, anti-CD25-PE, and anti-Foxp3-APC. All antibodies were diluted with the ratio of 1:100 and signal color beads (OneComp eBeads™ Compensation Beads) and unstained bead were used for compensation.
as §3

[9] = tested on: N1S1 cells
Procedure: as §4

cellular uptake of curcumin (green fluorescence signal) ([1]; higher concentration of ethanol in ethanol-curcumin solution) | time curcumin maintained in N1S1 hepatoma cells ([1]; uptake amplified by the ethanol solution) | Compound | cell-killing effect on N1S1 hepatoma cells (CCK-8 cell viability) ([2]; ethanol 15% to 1%, 5-min and 10-min coincubation) | growth inhibition of N1S1 hepatoma cells (CCK-8 cell viability) ([2]; ethanol 25% and 20%, 5-min and 10-min coincubation, 24 h and 48 h post-treatment) | liver cancer cell N1S1 growth ([2]; ethanol 25% to 5%, 10 min coincubation) | cell viability at 48 h post-treatment ([2]; lower ethanol concentrations, 5-min and 10-min coincubation, 48 h vs 24 h) | GPX-4 level at 12 h compared to 4 h post-treatment ([3]; ethanol 10, 5 and 1%) | expression of GPX-4 at 24 h post-treatment ([3]; ethanol 10, 5 and 1%, 24 h) | GPX-4 level ([3]; ethanol 25, 20 and 15%, 4 h, 12 h and 24 h) | p-STAT3 activation [4] | p-p65 activation [5] | PD-L1 expression [6] | average tumor volume of right-side HCC tumors [7] | IL-17 T cells in right-side tumor, difference among groups [8] | neutrophil population in right-side tumor compared to control [8] | population of Tregs in right-side tumor compared to control group [8] | early apoptosis and late apoptosis populations (Annexin-V/PI) ([9]; 10-min coincubation, various ethanol concentrations, found even at 0 h) | live cell populations at 48 h ([9]; ethanol 15%, 10%, 5%, 1%, 48 h) | late apoptosis population at 48 h compared to 0 h and 24 h ([9]; ethanol 25% and 20%, 10-min coincubation) | live cell populations (Annexin-V negative and PI negative) ([9]; ethanol 25% and 20%, all time points (0, 24, 48 h))
higher cellular uptake | at least 48 h | COc1cc(/C=C/C(=O)CC(=O)/C=C/c2ccc(O)c(OC)c2)ccc1O [curcumin, (1E,6E)-1,7-bis(4-hydroxy-3-methoxyphenyl)hepta-1,6-diene-3,5-dione] |  |  |  |  |  |  |  |  |  |  |  |  |  |  |  |  |  | 
 |  | CCO [ethanol] | modest cell-killing effect | efficient growth inhibition | inhibits | recovery of cell viability | increased | reduced to normal levels | consistently low | consistent activation | consistent activation | upregulation | about 130 mm^3 | no significant difference | no significant difference | decreased population | Dosage-dependent increase | higher live cell populations | decreased late apoptosis population | remained low
